In US20060135618A1, “Medicine comprising a thiourea for use as depigmenting agent or anti-mutagenic and anti-carcinogenic agent” (priority 2002, published 2006):

Legend:
[1] = test system: melanin-producing human melanocyte-keratinocyte co-cultures; assay: Depigmenting effect: melanin extraction from pigmented epidermis co-cultures; type: cell-based; conditions: for Inhibition % of the melanin in the co-cultures: 2.8 mM in culture medium for 21 days; for inhibition at 2800 µM: read-out: Inhibition % of the melanin in the co-cultures
Experimental: The culture media are also supplied by this manufacturer.
Extraction is carried out on a pool of two culture wells, which are homogenized in 0.45 ml of sodium dodecyl sulphate (SDS) at 1% containing 0.05 mM of EDTA and 10 mM of Tris HCl (amino-2-(hydroxymethyl)-2-propanediol-1,3), pH 6.8. Add 20 μl of proteinase K at 5 mg/ml to each homogenate. Digest over night at 45° C. Then add a further 20 μl of proteinase K and continue incubation for 4 hours. Then add 50 μl of 0.5 M solution of sodium carbonate and 10 μl of a 30% solution of hydrogen peroxide. Maintain the specimens at 80° C. for 30 min and then cool them. Extract the specimens with 100 μl of a chloroform-methanol mixture (2:1, v/v). After centrifugation at 10,000 g for 10 min, measure the optical density of the supernatant at 405 nm. The products are compared in Table 1 below (the results are expressed as percentage inhibition of the melanin in the co-cultures): […]

[2] = test system: Salmonella typhimurium TA 104 recN2-4; assay: Vitotox test, antimutagenic effect against MMS (methylmethanesulphonate); type: cell-based
Experimental: After incubation of the bacteria with a genotoxic product, the recN promoter is derepressed and the lux operon is expressed: emission of light, the said emission being proportional to the genotoxicity of the product. Some products act directly on the production of light or increase the metabolism of the bacteria, creating false positives. […] The same strain is used as cytotoxicity control (false negatives).
• In order to test the antimutagenic effect against genotoxic molecules, a genotoxic molecule, methylmethanesulphonate (MMS), is used, which is compared against the genotoxicity of a mixture of reference mutagenic molecules, 4-nitroquinoline oxide and benzo(a)pyrene. MMS is placed alone or mixed with bis MsoBT at increasing concentrations and the emissions of light are compared. […] The test product is used with or without metabolic activation (fraction S9: microsomal homogenate containing cytochrome P450: […] final). • The kinetics of emission of light, as a function of the genotoxicity and of the cytotoxicity of the product, is measured for 3 hours (measurements every 5 minutes) with a Fluoroskan Ascent FL (bermnoLabsystems). • The products are supplied by the companies Sigma-Aldrich. […]

[3] = test system: Salmonella typhimurium TA 104 recN2-4; assay: Vitotox test, antimutagenic effect against UVB; type: cell-based; conditions: cultures irradiated for 20 s, 254 nm, without MMS

## CNC(=S)NC [Dimethylthiourea, dimethylthiourea, reference compound]
[1]
  Inhibition % of the melanin in the co-cultures: 36%

## O=c1cc(CO)occ1O [Kojic acid, reference compound]
[1]; Homo sapiens, 504 h, 35 mM in culture medium for 21 days
  inhibition at 35000 µM: 32%

## C[S+]([O-])CCCCNC(=S)NCCCCS(C)(=O)=O (stereo not shown) [MSBMSBT, 1-(5-methanesulphinylbutyl)-3-(5-methanesulphonylbutyl)-thiourea]
[1]; Homo sapiens, 504 h
  inhibition at 2800 µM: 18%

## C[S+]([O-])CCCCNC(=S)NCCCC[S+](C)[O-] (stereo not shown) [bis MSiBT, 1,3-bis-(5-methanesulphinylbutyl)-thiourea]
[1]
  Inhibition % of the melanin in the co-cultures: 7.5%

## CS(=O)(=O)CCCCNC(=S)NCCCCS(C)(=O)=O [bis MSoBT, 1,3-bis-(5-methanesulphonylbutyl) thiourea]
[1]; Homo sapiens, 504 h
  inhibition at 2800 µM: 29.6%
[1]; relative to kojic acid
  necessary concentration for approx. 30% melanin inhibition, times lower than for kojic acid: 25 times
[2]; with S9
  inhibitory concentration 50 of the mutagenic effect of MMS: 20 ppm
[2]; without S9
  inhibitory concentration 50 of the mutagenic effect of MMS: 17 ppm
[3]
  inhibitory concentration 50 of the mutagenic effect induced by UVB: 25 ppm
other
  melting point: 142 °C
